Assay results taken from patent US8822464B2, “N-aryl-piperazine derivatives and their use as positive allosteric modulators of mGluR5 receptors” (Boehringer Ingelheim International GmbH, priority 2011, dated 2014).

Target: T1, human recombinant mGluR5 (Homo sapiens, UniProt P41594)
T1 construct: expressed in transfected cells; host or cells: HEK 293 cell line; cultured with tetracycline, hygromycin and geneticin; tetracycline withdrawn 3-7 days before the assay
Test: positive modulation of mGluR5, calcium based FLIPR assay in HEK 293 cells
Details: HEK 293 cell line expressing human recombinant mGluR5; peak height of Ca release fluorescence signal after glutamate at approximately 5% basal stimulation; nonlinear regression
Method: The positive modulation of mGluR5 is measured in a HEK 293 cell line expressing human recombinant mGluR5 and is detected with calcium based FLIPR assay. The cells are cultured with DMEM supplemented with 10% FCS, 2 μg/mL tetracycline, 100 μg/mL hygromycin and 500 μg/mL gneticin. The cell culture media is exchanged for tetracycline-free cell culture media 3-7 days before the assay. One day before the assay the cell culture medium is exchanged to DMEM without glutamine and phenol red and supplemented with 10% FCS, 100 μg/mL hygromycin and 500 μg/mL geneticin. On the assay day, the medium of the subconfluent cultures is removed and the cells are detached by addition of 2.5 ml EDTA(0.02%) per 175 cm2 culture flask for 1 minute. The cells are resuspend in Ringer solution (140 mM NaCl, 5 mM KCl, 2.5 mM CaCl2, 1.5 mM MgCl2, 5 mM Glucose, 10 mM Hepes; adjusted to pH 7.4 with NaOH), pooled and Ringer solution added to adjust the volume to 50 mL. The cell suspension is centrifuged for 5 min at 1500 U/min (425 g). The supernatant is removed and the cells washed a second time with 50 ml fresh Ringer solution and centrifuged again as before. The supernatant is again removed and the pellet resuspended in Ringer solution to 1,000,000 cells/ml (1×10^6 cells/mL). The cells are plated onto BD BioCoat Poly-D-Lysine 384 well plates (20.000 cells/well; 20 μl/well). The lid covered plates are then incubated until use at 37° C./10% CO2. For dye loading, 20 μl of Calcium-4 assay kit solution (prepared according to the manufacturer's description in Ringer solution) are added to the cells and the plates are incubated for 80 min 37° C. and then 10 min at room temperature.
Controls, Compound Dilution and Assay Execution:
Each assay plate contained wells with “high” and “low” controls:
Low controls 1% DMSO/ringer solution+basal glutamate activation (defined as 100% CTL).
High controls 10 μM CDPPB+basal glutamate activation (defined as 200% CTL).
Test compounds are dissolved and diluted in DMSO to 100-fold the desired concentrations. In a second step, the compounds are diluted in Ringer solution such that the compounds are 4-fold more concentrated than the desired final assay concentration. The final DMSO concentration was 1%.
20 μl of each compound solution are then transferred to the assay plate and the Ca2+ kinetic is measured to determine any intrinsic compound activity. After 5 min incubation in the FLIPR device, the second stimulation with 20 μl of glutamate in Ringer solution (glutamate concentration adjusted to approximately 5% basal stimulation of the maximal possible glutamate effect) is added and the kinetic Ca2+ response of the wells was measured for the modulation effect.
The peak height of the Ca release related fluorescence signal (9-66) is used for the EC50. The EC50 of the modulation is calculated over a nonlinear regression with GraphPad Prism (Table 1).

T1 sequence (P41594 21-1212): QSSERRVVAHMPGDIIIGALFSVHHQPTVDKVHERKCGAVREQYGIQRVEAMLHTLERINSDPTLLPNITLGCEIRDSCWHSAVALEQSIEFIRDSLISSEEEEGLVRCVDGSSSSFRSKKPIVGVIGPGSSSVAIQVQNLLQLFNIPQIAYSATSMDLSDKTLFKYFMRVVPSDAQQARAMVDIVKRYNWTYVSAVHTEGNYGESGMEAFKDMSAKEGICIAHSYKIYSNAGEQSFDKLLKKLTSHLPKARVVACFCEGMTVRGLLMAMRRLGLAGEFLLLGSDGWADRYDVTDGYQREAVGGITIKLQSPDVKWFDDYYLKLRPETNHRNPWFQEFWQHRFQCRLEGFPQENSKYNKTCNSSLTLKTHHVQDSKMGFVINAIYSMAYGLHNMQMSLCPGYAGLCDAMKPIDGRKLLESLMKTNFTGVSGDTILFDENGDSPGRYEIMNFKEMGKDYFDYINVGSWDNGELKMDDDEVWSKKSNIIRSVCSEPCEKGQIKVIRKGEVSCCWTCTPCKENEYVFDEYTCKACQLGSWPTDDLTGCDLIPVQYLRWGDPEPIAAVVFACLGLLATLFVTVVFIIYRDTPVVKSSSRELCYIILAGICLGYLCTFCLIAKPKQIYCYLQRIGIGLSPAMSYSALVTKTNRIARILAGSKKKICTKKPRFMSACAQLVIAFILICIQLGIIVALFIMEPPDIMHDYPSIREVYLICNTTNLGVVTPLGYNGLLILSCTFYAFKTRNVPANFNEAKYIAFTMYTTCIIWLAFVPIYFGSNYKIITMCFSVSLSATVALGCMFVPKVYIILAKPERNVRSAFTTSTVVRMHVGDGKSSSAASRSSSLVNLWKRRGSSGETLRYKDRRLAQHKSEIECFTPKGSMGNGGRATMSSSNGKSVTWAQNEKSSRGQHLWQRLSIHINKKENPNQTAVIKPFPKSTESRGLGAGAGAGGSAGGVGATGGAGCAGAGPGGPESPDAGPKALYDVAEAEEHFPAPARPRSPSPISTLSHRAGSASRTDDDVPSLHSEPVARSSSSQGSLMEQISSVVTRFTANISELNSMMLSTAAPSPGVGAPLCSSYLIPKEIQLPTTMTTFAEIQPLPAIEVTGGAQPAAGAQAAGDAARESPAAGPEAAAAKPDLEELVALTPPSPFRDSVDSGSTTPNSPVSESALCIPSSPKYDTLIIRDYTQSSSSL

SMILES | EC50 [nM]
Cc1cc(-c2cc(-c3ccccc3)n(CC(=O)N3CCN(c4ncccn4)CC3)n2)ccc1F [Example 7.01.01, 2-(3-(4-Fluoro-3-methyl-phenyl)-5-phenyl-pyrazol-1-yl)-1-(4-(2-pyrimidinyl)-1-piperazinyl)-ethanon] | 6
Cc1cc(-c2cc(-c3ccccc3)n(CC(=O)N3CCN(c4cccnn4)CC3)n2)ccc1F [Example 7.01.02] | 9
COc1cc(N2CCN(C(=O)Cn3nc(-c4ccc(F)c(C)c4)cc3-c3ccccc3)CC2)ncn1 [Example 7.01.03] | 11
Cc1cc(-c2cc(-c3ccccc3)n(CC(=O)N3CCN(c4ccccn4)CC3)n2)ccc1F [Example 7.01.04] | 11
Cc1cc(-c2cc(-c3ccccc3)nn2CC(=O)N2CCN(c3ncccn3)CC2)ccc1F [Example 7.01.05] | 44
Cc1cc(-c2cc(-c3ccccc3)nn2CC(=O)N2CCN(c3ccccn3)CC2)ccc1F [Example 7.01.06] | 99
O=C(Cn1nc(-c2ccccc2)cc1-c1ccccc1)N1CCN(c2nccc3ccccc23)CC1 [Example 7.01.07] | 621
O=C(Cn1nc(-c2ccccc2)cc1-c1ccccc1)N1CCN(c2ccncn2)CC1 [Example 7.01.08] | 349
O=C(Cn1nc(-c2ccccc2)cc1-c1ccccc1)N1CCN(c2ccc(Cl)cn2)CC1 [Example 7.01.09] | 373
N#Cc1ccccc1N1CCN(C(=O)Cn2nc(-c3ccccc3)cc2-c2ccccc2)CC1 [Example 7.01.10] | 750
CCOc1ccccc1N1CCN(C(=O)Cn2nc(-c3ccccc3)cc2-c2ccccc2)CC1 [Example 7.01.11] | 1420
O=C(Cn1nc(-c2ccccc2)cc1-c1ccccc1)N1CCN(c2ccc(Cl)nn2)CC1 [Example 7.01.12] | 216
O=C(Cn1nc(-c2ccc(F)cc2)cc1-c1ccc(F)cc1)N1CCN(c2ncccn2)CC1 [Example 7.01.13] | 14
COc1cc(N2CCN(C(=O)Cn3nc(-c4ccc(F)cc4)cc3-c3ccc(F)cc3)CC2)ncn1 [Example 7.01.14] | 22
O=C(Cn1nc(-c2ccc(F)cc2)cc1-c1ccc(F)cc1)N1CCN(c2ccccn2)CC1 [Example 7.01.15] | 30
COc1ccnc(N2CCN(C(=O)Cn3nc(-c4ccc(F)cc4)cc3-c3ccc(F)cc3)CC2)c1 [Example 7.01.16] | 32
COc1cccc(-c2cc(C3CCCCC3)n(CC(=O)N3CCN(c4ncccn4)CC3)n2)c1 [Example 7.01.17] | 117
COc1cccc(-c2cc(C3CCCCC3)n(CC(=O)N3CCN(c4ccccn4)CC3)n2)c1 [Example 7.01.18] | 285
COc1ccc(-c2cc(C(C)C)n(CC(=O)N3CCN(c4ncccn4)CC3)n2)cc1 [Example 7.01.19] | 86
COc1ccc(-c2cc(C(C)C)n(CC(=O)N3CCN(c4ccccn4)CC3)n2)cc1 [Example 7.01.20] | 183
COc1ccc(-c2cc(C(C)C)n(CC(=O)N3CCN(c4cc(C)ccn4)CC3)n2)cc1 [Example 7.01.21] | 111
COc1ccc(-c2cc(C(C)C)n(CC(=O)N3CCN(c4cccnn4)CC3)n2)cc1 [Example 7.01.22] | 701
COc1ccc(-c2cc(C(C)C)n(CC(=O)N3CCN(c4cc(OC)ncn4)CC3)n2)cc1 [Example 7.01.23] | 221
Cc1ccnc(N2CCN(C(=O)Cn3nc(-c4ccc(F)c(C)c4)cc3C(C)C)CC2)c1 [Example 7.01.24] | 79
COc1ccnc(N2CCN(C(=O)Cn3nc(-c4ccc(F)c(C)c4)cc3C(C)C)CC2)c1 [Example 7.01.25] | 112
Cc1cc(-c2cc(C(C)C)n(CC(=O)N3CCN(c4ccccn4)CC3)n2)ccc1F [Example 7.01.26] | 138
COc1cc(N2CCN(C(=O)Cn3nc(-c4ccc(F)c(C)c4)cc3C(C)C)CC2)ncn1 [Example 7.01.27] | 64

SMILES | EC50 [nM]
Cc1cc(-c2cc(C(C)C)n(CC(=O)N3CCN(c4cccnn4)CC3)n2)ccc1F [Example 7.01.29] | 158
COc1cnnc(N2CCN(C(=O)Cn3nc(-c4ccc(F)c(C)c4)cc3C(C)C)CC2)c1 [Example 7.01.30] | 987
Cc1cc(-c2cc(C(C)C)n(CC(=O)N3CCN(c4ncc(F)cn4)CC3)n2)ccc1F [Example 7.01.31] | 208
COc1cnc(N2CCN(C(=O)Cn3nc(-c4ccc(F)c(C)c4)cc3C(C)C)CC2)nc1 [Example 7.01.32] | 75
Cc1ccnc(N2CCN(C(=O)Cn3nc(-c4ccc(F)c(C)c4)cc3C3CCCCC3)CC2)c1 [Example 7.01.33] | 161
Cc1cc(-c2cc(C3CCCCC3)n(CC(=O)N3CCN(c4ncccn4)CC3)n2)ccc1F [Example 7.01.34] | 60
Cc1cc(-c2cc(C3CCCCC3)n(CC(=O)N3CCN(c4ccccn4)CC3)n2)ccc1F [Example 7.01.35] | 213
COc1cc(N2CCN(C(=O)Cn3nc(-c4ccc(F)c(C)c4)cc3C3CCCCC3)CC2)ncn1 [Example 7.01.36] | 308
COc1ccnc(N2CCN(C(=O)Cn3nc(-c4ccc(F)c(C)c4)cc3C3CCCCC3)CC2)c1 [Example 7.01.37] | 298
Cc1cc(-c2cc(C3CCCCC3)n(CC(=O)N3CCN(c4cccnn4)CC3)n2)ccc1F [Example 7.01.38] | 100
Cc1cc(-c2cc(C3CC3)n(CC(=O)N3CCN(c4ccccn4)CC3)n2)ccc1F [Example 7.01.41] | 234
Cc1cc(-c2cc(C3CC3)n(CC(=O)N3CCN(c4ncccn4)CC3)n2)ccc1F [Example 7.01.42] | 101
Cc1cc(-c2cc(C3CC3)n(CC(=O)N3CCN(c4cccnn4)CC3)n2)ccc1F [Example 7.01.43] | 725
Cc1ccnc(N2CCN(C(=O)Cn3nc(-c4ccc(F)c(C)c4)cc3C3CC3)CC2)c1 [Example 7.01.44] | 176
COc1cnnc(N2CCN(C(=O)Cn3nc(-c4ccc(F)c(C)c4)cc3C3CC3)CC2)c1 [Example 7.01.45] | 1010
COc1ccnc(N2CCN(C(=O)Cn3nc(-c4ccc(F)c(C)c4)cc3C3CC3)CC2)c1 [Example 7.01.46] | 333
COc1cc(N2CCN(C(=O)Cn3nc(-c4ccc(F)c(OC)c4)cc3C(C)C)CC2)ncn1 [Example 7.01.47] | 447
COc1cc(-c2cc(C(C)C)n(CC(=O)N3CCN(c4cc(C)ccn4)CC3)n2)ccc1F [Example 7.01.48] | 687
COc1cc(-c2cc(C(C)C)n(CC(=O)N3CCN(c4ccccn4)CC3)n2)ccc1F [Example 7.01.49] | 1060
COc1cc(-c2cc(C(C)C)n(CC(=O)N3CCN(c4ncc(Br)cn4)CC3)n2)ccc1F [Example 7.01.50] | 512
COc1cc(-c2cc(C(C)C)n(CC(=O)N3CCN(c4ncccn4)CC3)n2)ccc1F [Example 7.01.51] | 485
COc1ccc(-c2cc(C(C)C)n(CC(=O)N3CCN(c4cc(C)ccn4)CC3)n2)cc1C [Example 7.01.52] | 431
COc1ccc(-c2cc(C(C)C)n(CC(=O)N3CCN(c4ncccn4)CC3)n2)cc1C [Example 7.01.54] | 205
COc1ccnc(N2CCN(C(=O)Cn3nc(-c4ccc(OC)c(C)c4)cc3C(C)C)CC2)c1 [Example 7.01.55] | 501
COc1ccc(-c2cc(C(C)C)n(CC(=O)N3CCN(c4ccccn4)CC3)n2)cc1C [Example 7.01.56] | 393
O=C(Cn1nc(-c2ccc(F)cn2)cc1-c1ccccc1)N1CCN(c2ncccn2)CC1 [Example 7.01.57] | 81
